# Test results as given in patent US20040171086A1, “Selective modulation of TLR-mediated biological activity” (3M Innovative Properties Company, priority 2003, published 2004).
# Legend:
# TLR7 = target: T1, TLR7 (Homo sapiens, UniProt Q9NYK1); test: IFN-α1-luciferase reporter assay in genetically modified Namalwa cells, TLR7; assay type: cell-based; design: expressed in transfected cells; host or cells: Namalwa (ATCC CRL-1432); conditions: 10 μM IRM, 18 hours
# T1 sequence (Q9NYK1 27-1049): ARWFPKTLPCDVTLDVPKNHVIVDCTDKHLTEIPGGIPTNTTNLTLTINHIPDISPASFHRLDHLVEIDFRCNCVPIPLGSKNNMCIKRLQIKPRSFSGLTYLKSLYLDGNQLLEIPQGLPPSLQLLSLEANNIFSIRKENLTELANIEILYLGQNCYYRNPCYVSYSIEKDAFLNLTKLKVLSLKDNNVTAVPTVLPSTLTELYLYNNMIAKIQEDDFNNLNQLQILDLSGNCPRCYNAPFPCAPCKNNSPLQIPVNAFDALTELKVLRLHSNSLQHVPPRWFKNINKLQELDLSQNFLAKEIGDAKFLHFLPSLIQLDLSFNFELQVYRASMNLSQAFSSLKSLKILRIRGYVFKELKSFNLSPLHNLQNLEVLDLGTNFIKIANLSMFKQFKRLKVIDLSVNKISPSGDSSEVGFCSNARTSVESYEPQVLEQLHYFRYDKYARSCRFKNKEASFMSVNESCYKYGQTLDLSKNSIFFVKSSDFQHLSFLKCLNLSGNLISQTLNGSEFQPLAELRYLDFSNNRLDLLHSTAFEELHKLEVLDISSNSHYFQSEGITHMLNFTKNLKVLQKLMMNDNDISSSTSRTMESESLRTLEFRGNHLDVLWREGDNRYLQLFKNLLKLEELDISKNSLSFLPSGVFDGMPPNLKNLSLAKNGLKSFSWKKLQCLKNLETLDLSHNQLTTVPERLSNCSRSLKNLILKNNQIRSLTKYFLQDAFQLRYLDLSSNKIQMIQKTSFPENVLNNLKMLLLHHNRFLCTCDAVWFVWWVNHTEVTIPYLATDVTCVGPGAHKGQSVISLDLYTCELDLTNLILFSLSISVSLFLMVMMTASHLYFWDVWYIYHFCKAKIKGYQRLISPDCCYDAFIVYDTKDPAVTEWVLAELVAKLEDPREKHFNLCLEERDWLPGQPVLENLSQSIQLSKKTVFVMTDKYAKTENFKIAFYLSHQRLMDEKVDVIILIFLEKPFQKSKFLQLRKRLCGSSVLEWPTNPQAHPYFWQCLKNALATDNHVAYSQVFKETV
# Protocol: Results are shown in Table 6 and are expressed as fold induction of IFN-α1 —induced luciferase signal, again with respect to a vehicle control.
# The assay identified TLR6-selective compounds (i.e., compounds that modulate TLR6-mediated activity, but not TLR7-mediated activity), TLR7-selective compounds (compounds that modulate TLR7-mediated activity, but not TLR6-mediated activity), and compounds that modulate cellular activity through both TLR6 and TLR7.
# Unless otherwise indicated, all incubations were performed at 37° C. with 5% CO2 at 98% humidity.
# Culture medium was prepared from complete RPMI 1640 medium (BioSource International, Inc., Camarillo, Calif.). Fetal bovine serum (Atlas Biologicals, Inc., Ft. Collins, Colo.) was added to a final concentration of 7.5% (vol/vol); L-glutamine (BioSource International, Inc.) was added to 5 mM; and sodium pyruvate (BioSource International, Inc.) was added to 1 mM.
# Namalwa cells were grown by incubation in culture medium overnight. Cells were harvested by centrifugation in a tabletop centrifuge (1200 RPM for 5 minutes), and then resuspended in phosphate buffered sucrose to a concentration of 1.3×10^7 cells/mL. […]
# The electroporated cells were suspended in 10 mLs of culture medium and incubated overnight. Dead cells and debris were removed after 24 hours using a MACS Dead Cell Removal kit (Miltenyi Biotec, Auburn, Calif.). Cells were resuspended in 10 mL of culture medium and incubated for an additional 24 hours.
# Transfected cells were selected by adding G418 (Promega Corp., Madison, Wis.) to a final concentration of 1 mg/mL and incubating the cells for seven days.
# The selected transfected cells were counted and resuspended to a concentration of 1×10^6 cell per mL in culture medium. 100 μl aliquots of cells were placed in the wells of a white-walled, white-bottomed 96-well plate (Corning, Inc., Corning, N.Y.). 1.0 μL of an IRM compound from Table 1 (prepared at 1 mM in 100% DMSO) was added to some cell aliquots so that the final concentration of IRM compound was 10 μM. As a positive control, some cell aliquots were incubated with Sendai virus instead of IRM compound. As a negative control, some cell aliquots were incubated with DMSO without IRM compound. In all cases, the cells were incubated for 18 hours.
# The plates were equilibrated to room temperature before one volume of reconstituted LucLight Plus (Packard Instruments, Meriden, Conn.) was added to each aliquot of cells. Each well of the plate was read on an LJL Analyst (LJL Biosystems, Inc., Sunnyvale, Calif.) set with a 5 minute dark adapt. Results are shown in Table 6 and are expressed as fold increase of the IFN-αl—induced luciferase signal compared to a DMSO control.
# [1] = tested on: plasmacytoid dendritic cells (pDCs); test: Activation of plasmacytoid dendritic cells (CD80/HLA-DR staining, flow cytometry); assay type: cell-based, human; conditions: two donors; 1 μM IRM or 3 μM CpG2216, 16-24 hours; HLA-DR positive with increased CD80; FIG. 2
# Protocol: The cells were resuspended in 500 μL of separation buffer per 10^8 total cells. […] The cells retained in the column were eluted into a sterile 50 mL polystyrene conical tube.
# (§1) Compounds, reconstituted in dimethyl sulfoxide (DMSO, sterile cell culture grade, Sigma Chemical Co., St. Louis, Mo.) were added at 2× their final concentration to a 96-well flat-bottom sterile tissue culture polystyrene plate (Benton Dickinson Labware, Franklin Lakes, N.J.). Cells were then added at 2× the final concentration (final cell concentration is 1×10^6 cells/mL). Plates were incubated for 16-24 hours at 37° C., 5% CO2. After incubation, plates were centrifuged at 1000 RPM for 10 minutes at 25° C. Supernatants were transferred to a 0.75 mL sterile polypropylene Matrix box (Matrix, Hudson, N.Y.) and stored at −20° C. for future cytokine analysis.
# [2] = tested on: myeloid dendritic cells (mDCs); test: Activation of blood myeloid dendritic cells (CD80/HLA-DR staining, flow cytometry); assay type: cell-based, human; conditions: two donors; 1 μM IRM or 3 μM CpG2216, 16-24 hours; HLA-DR positive with increased CD80; FIG. 1
# Protocol: The blood myeloid dendritic cells (mDC) were isolated from the BDCA-4 negative cell fraction using the Miltenyi Microbead technology system (Miltenyi BioTec, Auburn, Calif.). Cells were resuspended in 4° C. separation buffer (PBS- pH 7.2, 0.5% BSA-2.5 gm, 2 mM 0.5M EDTA) at 20 μl per 10^7 total cells. […] The cells were resuspended in 500 μL of separation buffer per 10^8 total cells. […] BDCA-1^+mDCs were enriched using the Miltenyi Automacs POSSELD software. The cells retained in the column were eluted into a sterile 50 mL polystyrene conical tube.
# as §1
Structure (SMILES),TLR7: fold increase of the IFN-α1-induced luciferase signal compared to a DMSO control (TLR7) [fold increase],activation of plasmacytoid dendritic cells (pDCs) in vitro [1],activation of myeloid dendritic cells (mDCs) in vitro [2]
"CCOCc1nc2c(N)nc3ccccc3c2n1CC(C)C [IRM1, 2-(ethoxymethyl)-1-(2-methylpropyl)-1H-imidazo[4,5-c]quinolin-4-amine]",2.43,,
"COCCc1nc2c(N)nc3ccccc3c2n1CCOCCN(C)C(=O)C1CCCCC1 [IRM3, N-(2-{2-[4-amino-2-(2-methoxyethyl)-1H-imidazo[4,5-c]quinolin-1-yl]ethoxy}ethyl)-N-methylcyclohexanecarboxamide]",2.86,,
"CCCCc1nc2c(N)nc3ccccc3c2n1CCCCCS(C)(=O)=O [IRM6, 2-butyl-1-[5-(methylsulfonyl)pentyl]-1H-imidazo[4,5-c]quinolin-4-amine]",3.09,,
"CCc1nc2c(N)nc3ccccc3c2n1CCCCNC(=O)C1CCCCC1 [IRM8, N-[4-(4-amino-2-ethyl-1H-imidazo[4,5-c]quinolin-1-yl)butyl]cyclohexanecarboxamide]",2.89,,

# Further lines, with some results ahead:
TLR7: fold increase of the IFN-α1-induced luciferase signal compared to a DMSO control (TLR7) [fold increase],Structure (SMILES),activation of plasmacytoid dendritic cells (pDCs) in vitro [1],activation of myeloid dendritic cells (mDCs) in vitro [2]
1.40,"CCc1nc2c(N)nc3ccccc3c2n1CCCCSc1cc(Cl)cc(Cl)c1 [IRM14, 1-{4-[(3,5-dichlorophenyl)thio]butyl}-2-ethyl-1H-imidazo[4,5-c]quinolin-4-amine]",,
2.96,"CCOCc1nc2c(N)nc3c(c2n1CC(C)(C)O)CCCC3 [IRM16, 4-amino-2-ethoxymethyl-α,α-dimethyl-6,7,8,9-tetrahydro-1H-imidazo[4,5-c]quinoline-1-ethanol]",activated,activated
2.63,"COCCc1nc2c(N)nc3ccccc3c2n1CCOCCNC(=O)Nc1ccccc1 [IRM19, N-(2-{2-[4-amino-2-(2-methoxyethyl)-1H-imidazo[4,5-c]quinolin-1-yl)ethoxy}ethyl)-N′-phenylurea]",,
3.48,"CCC(C)NC(=S)NCCn1c(CCOC)nc2c(N)nc3ccccc3c21 (centres unmarked) [IRM21, N-{2-[4-amino-2-(2-methoxyethyl)-1H-imidazo[4,5-c]quinolin-1-yl]ethyl}-N′-sec-butylthiourea]",,
3.59,"COCCc1nc2c(N)nc3c(c2n1CC(C)(C)NS(C)(=O)=O)CCCC3 [IRM22, N-{2-[4-amino-2-(2-methoxyethyl)-6,7,8,9-tetrahydro-1H-imidazo[4,5-c]quinolin-1-yl]-1,1-dimethylethyl}methanesulfonamide]",,
